What all share (experiment): cells
What all share (set-up): CellTiter-Glo 2.0 luminescence proliferation/viability assay, single agents, human tumour cell line panel
(Cellular ATP, detected with luciferase, serves as a proxy for viable cell number.)

Experiment [1] deals with SW900. The following applies: Homo sapiens, SW900, 96 h; single agent; read-out: IC50 SMACm. The procedure: (§1) The effect of BETi, SMACm alone or in combination cell viability was determined using a 96-h CellTiter-Glo2.0 proliferation assay. Cells were seeded in assay plates and placed at 37°C with 5% CO2 for twenty-four hours before treatment. Compounds were added in triplicate in gradients of increasing concentrations, in case of SMACm ranging between 4.5 nM and 10 μM and in case of BETi between 1.4 nM and 3 μM. DMSO served as control. Cell viability was measured by luminescence analysis using luminescence read on Envision plate readers (PerkinElmer). An additional set of colorectal cancer cell lines was assayed with technical duplicates and experimental triplicates. Cell viability was measured by luminescence analysis using luminescence read on Tecan Plate reader. The effects of drug combinations were analyzed using the Bliss Independence Model.[34] Synergy score was calculated by the average of 3 highest and 3 lowest BLISS Gaps between predicted and measured POC (Percentage of Control) values. To investigate the synergistic interaction between BI 894999 (hereafter, BETi) and BI 891065 (hereafter, SMACm), we evaluated the in vitro anti-tumor effect of the single agents or the combination in a large panel of 151 cancer cell lines of different tissue origin: CRC, gastric cancer, non-small cell lung cancer (NSCLC), and pancreatic carcinoma (Figures 1C–1F). As a mono-agent, SMACm was able to inhibit cell proliferation only in a limited number of tested cell lines (4%, Table S2). Most of the cell lines responded to inhibition by BETi, with sensitivity ranging from 10 to 100 nM (Figure 1C). Bliss Gap analysis, performed to analyze the effect of the BETi+SMACm combination on tumor cell growth (Figures 1D–1F), unveiled potent synergistic activity across the cell models tested (Figure 1E), independent of tumor type (Figure 1F).  Figure 1 The combinatorial effect of BI 894999 and BI 891065 across a panel of human tumor cell lines (A) Selectivity and potency profiles of BI 891065. Top left, structure of BI 891065. Top right, IC50 values for BI 891065 inhibition of cIAP1, cIAP2, and XIAP. Bottom, physicochemical properties of […]. (B) WES (Simple Western System) analysis of cIAP1, cIAP2, and XIAP levels upon treatment of HT-29 cells with indicated concentrations of BI 891065 for 6 h (C) IC50 values determined in cell proliferation assays (n = 151) individually for BETi BI 894999 and SMACm BI 891065. Each point represents a cell line tested. (D) Example of proliferation assay for synergy analysis in LoVo cell line; shown is combination plate map matrix and the cell growth inhibition (CGI) at the indicated concentrations; CGI values < 100%: tumor cell growth, CGI 100%: tumor cell stasis, and CGI > 100%: tumor cell killing. (E) Synergy scores across the tested panel of cell lines obtained using Bliss synergy analysis. (F) Violin plots showing the synergy scores for BETi and SMACm combination across indications. N is the number of cell lines tested in each indication group.

Experiment [2] deals with SNU1411. The following applies: 96 h; single agent; read-out: IC50 SMACm. The procedure: as §1
Experiment [3] has as its system SNUC2B. The following applies: Homo sapiens, SNU-C2B, 96 h; single agent; read-out: IC50 SMACm. The procedure:
as §1

Experiment [4] deals with CACO2. The following applies: Homo sapiens, Caco-2, 96 h; single agent; read-out: IC50 SMACm. How it is done:
as §1

Experiment [5] deals with NCI-H596. The following applies: Homo sapiens, NCI-H596, 96 h; single agent; read-out: IC50 SMACm. The procedure: as §1
In experiment [6] the test system is NUGC-3. The following applies: Homo sapiens, NUGC-3, 96 h; single agent; read-out: IC50 SMACm. The procedure:
as §1

In experiment [7] the test system is GCIY. The following applies: Homo sapiens, GCIY, 96 h; single agent; read-out: IC50 SMACm. How it is done:
as §1

Experiment [8] has as its system SW837. The following applies: Homo sapiens, SW837, 96 h; single agent; read-out: IC50 SMACm. How it is done: as §1
Experiment [9] has as its system NCI-H838. The following applies: Homo sapiens, NCI-H838, 96 h; single agent; read-out: IC50 SMACm. How it is done:
as §1

The subject of experiment [10] is NCI-H520. The following applies: Homo sapiens, NCI-H520, 96 h; single agent; read-out: IC50 SMACm. How it is done: as §1
The test system of experiment [11] is HCA46. The following applies: 96 h; single agent; read-out: IC50 SMACm. The procedure: as §1
Experiment [12] relates to LU-65. The following applies: Homo sapiens, Lu-65, 96 h; single agent; read-out: IC50 SMACm. The procedure: as §1
Experiment [13] relates to MDST8. The following applies: MDST8, 96 h; single agent; read-out: IC50 SMACm. How it is done: as §1
The subject of experiment [14] is HUTU80. The following applies: Homo sapiens, HuTu80, 96 h; single agent; read-out: IC50 SMACm. How it is done: as §1

The values that follow come from PMC12490239, “Combining BET inhibition with SMAC mimetics restricts tumor growth and triggers immune surveillance in preclinical cancer models” (Cell Reports Medicine, 2025).

The structures appear in SMILES notation.

As a reminder, the IC50 is the point on the concentration scale where inhibition reaches its midpoint. On to `CN[C@@H](C)C(=O)Nc1ccc(-c2c(-c3cccnc3OC)nc3cc(C)ccn23)c(C#Cc2ccc3c(C)nccc3c2)n1` [SMACm, BI 891065], for which the IC50 in [1] is 1.78 µM; in experiment [2] it was 4.87 µM; in experiment [3] it was 0.137 µM; in [4], 2.97 µM; in experiment [5], 4.41 µM; in experiment [6], 4.59 µM. Besides, the IC50 in experiment [7] is 4.01 µM; in [8] it was 6.24 µM; in experiment [9] it was 4.18 µM; in experiment [10], 4.01 µM; in [11], 3.54 µM; in [12], 4.35 µM. For the same compound, the figures for the IC50 in [13] and in experiment [14] were 4.78 µM and 1.36 µM, respectively.
